The record followed here is patent US20140005163A1 (NOVARTIS AG, priority 2010, published 2014).

Data set [1] is described as follows: Solubility at pH 6.8. The data set is classed as physicochemical. Particulars: pH 6.8, aqueous buffer, thermodynamic from solid; read-out: solubility. The essentials:
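Solubility was measured at pH 6.8 following the cited Zhou et al. (2007) procedure.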

In data set [2] the target is T1, mTOR (Homo sapiens, UniProt P42345).
T1 construct: purchased Invitrogen Corporation (Carlsbad/CA, USA) PV4753
T1 sequence (P42345 1360-2549 limits assumed): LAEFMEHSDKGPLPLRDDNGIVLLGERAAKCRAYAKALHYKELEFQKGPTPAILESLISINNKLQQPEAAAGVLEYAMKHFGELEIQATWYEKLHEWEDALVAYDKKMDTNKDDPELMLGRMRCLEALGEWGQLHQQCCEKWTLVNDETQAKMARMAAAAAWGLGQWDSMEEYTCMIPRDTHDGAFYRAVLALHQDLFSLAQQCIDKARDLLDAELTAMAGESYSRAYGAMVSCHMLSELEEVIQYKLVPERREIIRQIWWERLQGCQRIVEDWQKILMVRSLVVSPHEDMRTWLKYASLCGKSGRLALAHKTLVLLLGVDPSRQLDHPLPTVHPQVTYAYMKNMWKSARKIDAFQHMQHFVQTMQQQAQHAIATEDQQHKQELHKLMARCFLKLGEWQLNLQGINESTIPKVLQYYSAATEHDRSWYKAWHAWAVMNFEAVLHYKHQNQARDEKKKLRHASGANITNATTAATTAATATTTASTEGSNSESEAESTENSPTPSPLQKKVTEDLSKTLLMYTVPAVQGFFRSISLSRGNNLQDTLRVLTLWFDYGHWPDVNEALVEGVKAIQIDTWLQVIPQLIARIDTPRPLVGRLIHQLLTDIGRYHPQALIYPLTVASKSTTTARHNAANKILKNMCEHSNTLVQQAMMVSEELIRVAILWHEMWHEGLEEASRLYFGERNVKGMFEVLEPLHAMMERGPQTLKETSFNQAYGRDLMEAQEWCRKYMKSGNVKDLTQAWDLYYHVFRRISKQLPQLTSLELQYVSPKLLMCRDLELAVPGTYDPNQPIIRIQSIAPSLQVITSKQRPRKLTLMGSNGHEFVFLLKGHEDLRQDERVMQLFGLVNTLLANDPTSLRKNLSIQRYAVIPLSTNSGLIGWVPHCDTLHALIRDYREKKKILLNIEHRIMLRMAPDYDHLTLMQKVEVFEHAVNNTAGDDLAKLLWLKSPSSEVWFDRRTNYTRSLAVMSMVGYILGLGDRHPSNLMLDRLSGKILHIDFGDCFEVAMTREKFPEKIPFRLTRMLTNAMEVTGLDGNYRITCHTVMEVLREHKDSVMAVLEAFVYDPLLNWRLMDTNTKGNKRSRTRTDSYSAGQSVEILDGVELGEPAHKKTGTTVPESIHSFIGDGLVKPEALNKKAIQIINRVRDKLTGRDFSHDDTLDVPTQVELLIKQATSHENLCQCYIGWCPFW
The experiment in a line: Biochemical assay for m-TOR by TR-FRET. Particulars: 8 μM ATP, 400 nM GFP-4EBP1, 0.5 nM mTOR. The essentials: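 mTOR (0.5 nM) was incubated at rt with ATP (8 μM final) and GFP-4EBP1 (400 nM final) in 50 mM HEPES pH 7.5, 10 mM MnCl2, 50 mM NaCl, 1 mM EGTA, 1 mM DTT. EDTA stop with Tb3+-anti-p4EBP1 [pThr46] antibody (0.5 nM); TR-FRET read 15 min later.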

For data set [3], the system named is PKB Ser473 phosphorylation in Rat1-myr-HA-p110 alpha cells. Kind of data set: Reverse protein array assay, PKB Ser473 phosphorylation in Rat1-myr-p110 alpha cells. Particulars: 0.5 h, pAkt Ser473, 30 minutes compound incubation, read-out: p-PKB IC50. The data set is classed as cell-based. The method, boiled down: (§1)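 Lysates were arrayed at four dilutions, and phospho-PKB Ser473 was quantified by relative fluorescence signal. They came from Rat1-myr-HA-p110 alpha, beta or delta cells exposed for 30 min at 37 °C to an 8-point compound series with 0.2% DMSO constant.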

Data set [4] deals with PKB Ser473 phosphorylation in Rat1-myr-HA-p110 beta cells. Kind of data set: Reverse protein array assay, PKB Ser473 phosphorylation in Rat1-myr-p110 beta cells. The data set is classed as cell-based. Particulars: 0.5 h, pAkt Ser473, 30 minutes incubation, read-out: p-PKB IC50. The essentials: as §1
Data set [5] concerns PKB Ser473 phosphorylation in Rat1-myr-HA-p110 delta cells. The experiment in a line: Reverse protein array assay, PKB Ser473 phosphorylation in Rat1-myr-p110 delta cells. Particulars: read-out: p-PKB IC50. Type of data set: cell-based. The method, boiled down: as §1
Data set [6] concerns S6 Ribosomal Protein phosphorylation Ser235/236 in TSC1 null mouse embryo fibroblast (MEF) cells. The experiment in a line: Reverse protein array assay, S6 Ribosomal Protein phosphorylation Ser235/236 in TSC1 null MEF cells. Type of data set: cell-based. Particulars: 1 h, pS6 ribosomal protein Ser235/236, 60 minutes incubation, read-out: p-S6 IC50. The essentials:
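TSC1−/− MEFs, seeded and held ≥20 h at 37 °C/5% CO2, were exposed to 8-step serial compound dilutions (0.02% DMSO final; DMSO vehicle control) for 60 min at 37 °C. Cells were then lysed on ice for 10 min and lysates spotted onto reverse protein array chips.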

Converted amounts (≈) assume the structure as drawn.

For orientation: solubility means the concentration that dissolves in the medium under given conditions. The term IC50 denotes the concentration at which inhibition is half-maximal.

For `Cc1nn(C)cc1-n1c(=O)n(C)c2cnc3ccc(-c4ccc(N)nc4)cc3c21` [Example 23.1, 8-(6-Amino-pyridin-3-yl)-1-(1,3-dimethyl-1H-pyrazol-4-yl)-3-methyl-1,3-dihydro-imidazo[4,5-c]quinolin-2-one], in data set [1], the solubility came out at 16 µg/mL (≈ 41.5 µM). Also, the 50% inhibitory concentration (IC50) in data set [2] stood at 4 nM; in data set [3], 13 nM; in data set [4], 7 nM; in data set [5], 26 nM; in data set [6], 4 nM.

On to `Cc1ccc(-c2ccc3ncc4c(c3c2)n(-c2cn(C)nc2C)c(=O)n4C)cn1` [Example 7.2, 1-(1,3-Dimethyl-1H-pyrazol-4-yl)-3-methyl-8-(6-methyl-pyridin-3-yl)-1,3-dihydro-imidazo[4,5-c]quinolin-2-one], for which the solubility in data set [1] was 9 µg/mL (≈ 23.4 µM). Moreover, the 50% inhibitory concentration (IC50) in data set [2] was determined as 34 nM; in data set [3], 14 nM; in data set [4] it was 35 nM; in data set [5], 28 nM; in data set [6], 13.5 nM.

On to `CCOc1ncc(-c2ccc3ncc4c(c3c2)n(-c2cn(C)nc2C)c(=O)n4C)cn1` [Example 52, 1-(1,3-Dimethyl-1H-pyrazol-4-yl)-8-(2-ethoxy-pyrimidin-5-yl)-3-methyl-1,3-dihydro-imidazo[4,5-c]quinolin-2-one], for which the solubility in data set [1] was 11 µg/mL (≈ 26.5 µM). The IC50 in data set [2] was 74 nM; in data set [3], 6 nM; in data set [4] it was 9 nM; in data set [5] it was 96 nM; in data set [6] it was 48 nM.

Regarding `Cc1nn(CC(=O)N2CCC2)cc1-n1c(=O)n(C)c2cnc3ccc(-c4cncc(OC(C)C)c4)cc3c21` [Example 205, 1-[1-(2-Azetidin-1-yl-2-oxo-ethyl)-3-methyl-1H-pyrazol-4-yl]-8-(5-isopropoxy-pyridin-3-yl)-3-methyl-1,3-dihydro-imidazo[4,5-c]quinolin-2-one], in data set [1], the solubility was > 512 µg/mL. Also, the IC50 in data set [2] stood at 22 nM; in data set [3], 76 nM; in data set [4] it was 266 nM; in data set [5], 772 nM; in data set [6], 37 nM.

On to `CCn1cc(-n2c(=O)n(C)c3cnc4ccc(-c5ccc(N(C)C)nc5)cc4c32)c(C)n1` [Example 4.2, 8-(6-Dimethylamino-pyridin-3-yl)-1-(1-ethyl-3-methyl-1H-pyrazol-4-yl)-3-methyl-1,3-dihydro-imidazo[4,5-c]quinolin-2-one], for which the solubility in data set [1] came to 7 µg/mL (≈ 16.4 µM). In addition, the 50% inhibitory concentration (IC50) came out at 15 nM in data set [2]; 14 nM in data set [3]; 19 nM in data set [4]; 44 nM in data set [5]; 7 nM in data set [6].

Take `COCCOc1cncc(-c2ccc3ncc4c(c3c2)n(-c2cn(C)nc2C)c(=O)n4C)c1` [Example 59.1, 1-(1,3-Dimethyl-1H-pyrazol-4-yl)-8-[5-(2-methoxy-ethoxy)-pyridin-3-yl]-3-methyl-1,3-dihydro-imidazo[4,5-c]quinolin-2-one]: the solubility in data set [1] is > 444 µg/mL. Further, the concentration for half-maximal inhibition (IC50) in data set [2] stood at 96 nM; in data set [3], 126 nM; in data set [4] it was 265 nM; in data set [5] it was 204 nM; in data set [6], 6 nM.

Take `CCOc1ccc(-c2ccc3ncc4c(c3c2)n(-c2cn(CC(=O)N3CCC3)nc2C)c(=O)n4C)cn1` [Example 138, 1-[1-(2-Azetidin-1-yl-2-oxo-ethyl)-3-methyl-1H-pyrazol-4-yl]-8-(6-ethoxy-pyridin-3-yl)-3-methyl-1,3-dihydro-imidazo[4,5-c]quinolin-2-one]: the solubility in data set [1] worked out at 26 µg/mL (≈ 52.3 µM). Further, the IC50 was 10 nM in data set [2]; 36 nM in data set [3]; 38 nM in data set [4]; 58 nM in data set [5]; 3 nM in data set [6].

As for `Cn1cc(-n2c(=O)n(C)c3cnc4ccc(-c5cnc(N)c(CO)c5)cc4c32)c(Cl)n1` [Example 169.3, 8-(6-Amino-5-hydroxymethyl-pyridin-3-yl)-1-(3-chloro-1-methyl-1H-pyrazol-4-yl)-3-methyl-1,3-dihydro-imidazo[4,5-c]quinolin-2-one], the solubility in data set [1] is 10 µg/mL (≈ 22.9 µM). The IC50 in data set [2] was < 3 nM; in data set [3], 19 nM; in data set [4], 24 nM; in data set [5] it was 41 nM; in data set [6], 1.32 nM.

For `COc1ncc(-c2ccc3ncc4c(c3c2)n(-c2cn(C)nc2C)c(=O)n4C)cn1` [Example 17.2, 1-(1,3-Dimethyl-1H-pyrazol-4-yl)-8-(2-methoxy-pyrimidin-5-yl)-3-methyl-1,3-dihydro-imidazo[4,5-c]quinolin-2-one], the solubility in data set [1] came to 32 µg/mL (≈ 79.7 µM). The IC50 in data set [2] worked out at 68 nM; in data set [3] it was 19 nM; in data set [4], 40 nM; in data set [5], 58 nM; in data set [6], 33 nM.

`Cc1nn(CC(=O)N(C)C)cc1-n1c(=O)n(C)c2cnc3ccc(-c4ccc(-n5cccn5)cc4)cc3c21` [Example 51.2, N,N-Dimethyl-2-{3-methyl-4-[3-methyl-2-oxo-8-(4-pyrazol-1-yl-phenyl)-2,3-dihydro-imidazo[4,5-c]quinolin-1-yl]-pyrazol-1-yl}-acetamide]: in data set [1], the solubility is 4 µg/mL (≈ 7.9 µM). Also, the IC50 in data set [2] was < 3 nM; in data set [3] it was 15 nM; in data set [4], 6 nM; in data set [5], 22 nM; in data set [6], 1 nM.

As to `COc1ccc(-c2ccc3ncc4c(c3c2)n(-c2cn(CCO)nc2C)c(=O)n4C)cn1` [Example 103.1, 1-[1-(2-Hydroxy-ethyl)-3-methyl-1H-pyrazol-4-yl]-8-(6-methoxy-pyridin-3-yl)-3-methyl-1,3-dihydro-imidazo[4,5-c]quinolin-2-one], in data set [1], the solubility was 38 µg/mL (≈ 88.3 µM). Also, the concentration for half-maximal inhibition (IC50) in data set [2] was 21 nM; in data set [3], 47 nM; in data set [4], 30 nM; in data set [5] it was 66 nM; in data set [6], 13 nM.

`CCn1cc(-n2c(=O)n(C)c3cnc4ccc(-c5cnc(NC)c(Cl)c5)cc4c32)c(C)n1` [Example 146.2, 8-(5-Chloro-6-methylamino-pyridin-3-yl)-1-(1-ethyl-3-methyl-1H-pyrazol-4-yl)-3-methyl-1,3-dihydro-imidazo[4,5-c]quinolin-2-one]: the solubility in data set [1] amounted to 6 µg/mL (≈ 13.4 µM). Besides, the concentration for half-maximal inhibition (IC50) is 20 nM in data set [2]; < 5 nM in data set [3]; 11 nM in data set [4]; 18 nM in data set [5]; 2 nM in data set [6].

On to `Cc1nn(C)cc1-n1c(=O)n(C)c2cnc3ccc(-c4cnc5c(c4)C(C)(C)C(=O)N5C)cc3c21` [Example 233, 1-(1,3-Dimethyl-1H-pyrazol-4-yl)-3-methyl-8-(1,3,3-trimethyl-2-oxo-2,3-dihydro-1H-pyrrolo[2,3-b]pyridin-5-yl)-1,3-dihydro-imidazo[4,5-c]quinolin-2-one], for which the solubility in data set [1] was 11 µg/mL (≈ 23.5 µM). For the same compound, the half-maximal inhibitory concentration (IC50) in data set [2] is 64 nM; in data set [3], 26 nM; in data set [4], 55 nM; in data set [5], 26 nM; in data set [6], 3 nM.

Regarding `CCNc1cc(-c2ccc3ncc4c(c3c2)n(-c2c(C)nn(C)c2C)c(=O)n4C)cnc1CO` [Example 155.4, 8-(5-Ethylamino-6-hydroxymethyl-pyridin-3-yl)-3-methyl-1-(1,3,5-trimethyl-1H-pyrazol-4-yl)-1,3-dihydro-imidazo[4,5-c]quinolin-2-one], the solubility in data set [1] turned out to be 62 µg/mL (≈ 136 µM). Further, the IC50 in data set [2] was 22 nM; in data set [3], 88 nM; in data set [4], 47 nM; in data set [5], 59 nM; in data set [6] it was 18 nM.

For `CCOc1cncc(-c2ccc3ncc4c(c3c2)n(-c2cn(C)nc2C)c(=O)n4C)c1` [Example 56.1, 1-(1,3-Dimethyl-1H-pyrazol-4-yl)-8-(5-ethoxy-pyridin-3-yl)-3-methyl-1,3-dihydro-imidazo[4,5-c]quinolin-2-one], the solubility in data set [1] was found to be 25 µg/mL (≈ 60.3 µM). Moreover, the concentration for half-maximal inhibition (IC50) in data set [2] is 15 nM; in data set [3] it was 16 nM; in data set [4], 29 nM; in data set [5], 50 nM; in data set [6], 4 nM.

For the compound `CCN(CC)C(=O)Cn1cc(-n2c(=O)n(C)c3cnc4ccc(-c5ccc(C)nc5)cc4c32)c(C)n1` [Example 139, N,N-Diethyl-2-{3-methyl-4-[3-methyl-8-(6-methyl-pyridin-3-yl)-2-oxo-2,3-dihydro-imidazo[4,5-c]quinolin-1-yl]-pyrazol-1-yl}-acetamide], the solubility in data set [1] was > 484 µg/mL. In addition, the IC50 in data set [2] amounted to 21 nM; in data set [3] it was 52 nM; in data set [4], 39 nM; in data set [5] it was 70 nM; in data set [6], 4 nM.
